Measured values: PMC6792169 (ACS Medicinal Chemistry Letters, 2019)
Read-outs that look alike come from different tables or passages of the source.

Tests used:
44 tumor cell lines [1] = settings: matched 44 cell line panel; cited from earlier work
OVCAR-3 xenograft [2] = settings: 50 mg/kg p.o. QD for 28 days, day 45; cited from earlier work
[3] = Liver microsome stability; type: in vitro ADME; settings: rat, liver microsomes, pH 7.4
PI3Kβ = PI3Kβ (Homo sapiens, UniProt P42338); assay: DiscoverX KdELECT; settings: Inhibitor binding constant Kd PI3Kβ, second PI3K column of Table S2
Chain of PI3Kβ (P42338 whole entry): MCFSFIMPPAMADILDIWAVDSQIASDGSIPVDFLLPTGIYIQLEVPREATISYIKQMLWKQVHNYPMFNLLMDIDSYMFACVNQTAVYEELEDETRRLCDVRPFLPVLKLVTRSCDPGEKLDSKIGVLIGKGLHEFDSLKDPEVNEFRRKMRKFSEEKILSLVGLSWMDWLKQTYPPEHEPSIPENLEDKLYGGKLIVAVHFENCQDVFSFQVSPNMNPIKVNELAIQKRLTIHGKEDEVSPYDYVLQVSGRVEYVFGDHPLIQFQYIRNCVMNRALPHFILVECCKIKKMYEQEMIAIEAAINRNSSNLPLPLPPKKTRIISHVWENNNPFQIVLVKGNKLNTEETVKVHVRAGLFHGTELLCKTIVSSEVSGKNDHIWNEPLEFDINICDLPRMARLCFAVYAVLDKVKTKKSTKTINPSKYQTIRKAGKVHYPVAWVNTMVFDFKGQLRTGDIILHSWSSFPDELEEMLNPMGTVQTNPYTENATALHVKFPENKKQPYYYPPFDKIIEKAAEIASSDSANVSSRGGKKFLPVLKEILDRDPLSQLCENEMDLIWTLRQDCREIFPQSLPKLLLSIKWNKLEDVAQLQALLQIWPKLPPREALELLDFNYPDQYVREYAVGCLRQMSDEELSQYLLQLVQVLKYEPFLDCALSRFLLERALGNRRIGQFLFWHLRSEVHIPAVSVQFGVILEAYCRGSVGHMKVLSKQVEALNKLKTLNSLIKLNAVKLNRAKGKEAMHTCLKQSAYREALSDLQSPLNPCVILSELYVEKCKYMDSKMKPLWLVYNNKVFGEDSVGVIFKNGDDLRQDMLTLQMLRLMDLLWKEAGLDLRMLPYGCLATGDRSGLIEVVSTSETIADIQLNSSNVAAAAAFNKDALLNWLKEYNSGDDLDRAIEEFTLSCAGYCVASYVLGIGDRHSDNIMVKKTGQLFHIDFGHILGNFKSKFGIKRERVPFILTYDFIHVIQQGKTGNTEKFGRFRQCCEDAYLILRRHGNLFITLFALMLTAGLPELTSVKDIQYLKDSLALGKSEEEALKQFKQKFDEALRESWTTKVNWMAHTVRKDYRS

[4] = Liver microsome stability; type: in vitro ADME; settings: dog, liver microsomes, pH 7.4
PI3Kδ = molecular target: T1, PI3Kδ (Homo sapiens, UniProt O00329); assay: DiscoverX KdELECT; settings: Inhibitor binding constant Kd PI3Kδ, third PI3K column of Table S2
T1 sequence (O00329 1-1044): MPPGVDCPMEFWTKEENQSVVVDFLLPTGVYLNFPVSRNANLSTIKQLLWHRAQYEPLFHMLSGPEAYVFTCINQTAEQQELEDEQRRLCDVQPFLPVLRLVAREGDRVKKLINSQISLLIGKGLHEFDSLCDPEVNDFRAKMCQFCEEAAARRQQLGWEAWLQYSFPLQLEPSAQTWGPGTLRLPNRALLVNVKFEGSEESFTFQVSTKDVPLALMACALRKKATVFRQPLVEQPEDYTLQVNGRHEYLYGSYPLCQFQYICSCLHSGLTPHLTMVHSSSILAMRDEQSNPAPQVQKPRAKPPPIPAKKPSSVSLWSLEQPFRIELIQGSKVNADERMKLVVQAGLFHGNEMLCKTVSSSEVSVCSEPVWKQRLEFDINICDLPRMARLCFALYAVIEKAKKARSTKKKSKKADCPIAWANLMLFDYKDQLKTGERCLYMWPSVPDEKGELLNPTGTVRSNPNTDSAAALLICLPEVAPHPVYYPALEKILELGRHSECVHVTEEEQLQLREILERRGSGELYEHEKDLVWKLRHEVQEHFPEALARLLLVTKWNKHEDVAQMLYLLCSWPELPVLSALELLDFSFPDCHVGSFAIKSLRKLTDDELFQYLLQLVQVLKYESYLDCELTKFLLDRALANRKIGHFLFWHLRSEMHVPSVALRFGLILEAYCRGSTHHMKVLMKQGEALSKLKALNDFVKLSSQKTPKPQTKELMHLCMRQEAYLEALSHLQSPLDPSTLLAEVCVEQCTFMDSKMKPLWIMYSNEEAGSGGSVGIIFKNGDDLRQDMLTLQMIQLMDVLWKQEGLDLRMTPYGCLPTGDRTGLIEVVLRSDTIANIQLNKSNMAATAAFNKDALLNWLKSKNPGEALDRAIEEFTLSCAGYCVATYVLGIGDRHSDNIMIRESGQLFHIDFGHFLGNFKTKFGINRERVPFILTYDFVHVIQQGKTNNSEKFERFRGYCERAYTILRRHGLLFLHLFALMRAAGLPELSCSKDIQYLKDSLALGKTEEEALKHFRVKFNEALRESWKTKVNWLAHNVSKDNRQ

66 cancer cell lines = assay: NTRC Oncolines proliferation, panel mean; type: cell-based; settings: read-out: mean half-maximal growth inhibition (GI50)
PI3Kγ = PI3Kγ (Homo sapiens, UniProt P48736); assay: DiscoverX KdELECT; settings: Inhibitor binding constant Kd PI3Kγ, fourth PI3K column of Table S2
Chain of PI3Kγ (P48736 whole entry): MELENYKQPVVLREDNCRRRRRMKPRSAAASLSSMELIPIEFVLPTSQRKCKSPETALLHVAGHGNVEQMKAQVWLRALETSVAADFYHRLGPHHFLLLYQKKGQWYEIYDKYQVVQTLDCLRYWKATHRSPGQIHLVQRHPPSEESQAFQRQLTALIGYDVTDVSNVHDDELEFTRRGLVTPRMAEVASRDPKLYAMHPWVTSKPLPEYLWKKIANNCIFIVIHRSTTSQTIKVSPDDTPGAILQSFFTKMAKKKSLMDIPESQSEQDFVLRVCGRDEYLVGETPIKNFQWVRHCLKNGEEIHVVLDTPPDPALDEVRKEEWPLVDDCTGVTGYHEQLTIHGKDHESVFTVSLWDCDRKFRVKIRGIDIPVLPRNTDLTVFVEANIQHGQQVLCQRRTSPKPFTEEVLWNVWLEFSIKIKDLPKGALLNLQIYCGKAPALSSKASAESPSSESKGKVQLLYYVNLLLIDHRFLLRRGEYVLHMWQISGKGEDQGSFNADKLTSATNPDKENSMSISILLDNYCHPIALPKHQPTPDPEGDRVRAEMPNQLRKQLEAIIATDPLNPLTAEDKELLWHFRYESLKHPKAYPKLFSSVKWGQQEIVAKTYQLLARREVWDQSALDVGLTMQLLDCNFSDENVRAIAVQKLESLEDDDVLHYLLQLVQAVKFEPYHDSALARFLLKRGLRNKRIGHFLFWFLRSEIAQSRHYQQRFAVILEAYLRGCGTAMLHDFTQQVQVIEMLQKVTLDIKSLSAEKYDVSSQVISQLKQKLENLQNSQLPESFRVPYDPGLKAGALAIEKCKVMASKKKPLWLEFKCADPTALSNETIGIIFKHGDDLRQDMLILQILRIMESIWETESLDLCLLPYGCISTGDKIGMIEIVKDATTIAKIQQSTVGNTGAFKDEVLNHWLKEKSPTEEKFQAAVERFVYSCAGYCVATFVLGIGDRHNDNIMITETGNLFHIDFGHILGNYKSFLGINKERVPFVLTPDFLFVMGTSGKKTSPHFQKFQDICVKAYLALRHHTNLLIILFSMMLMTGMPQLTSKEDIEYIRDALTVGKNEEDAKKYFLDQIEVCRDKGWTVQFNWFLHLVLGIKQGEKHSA

Pharmacokinetics in mice = settings: plasma, 10 mg/kg p.o.
OVCAR-3 xenograft [5] = assay: OVCAR-3 xenograft model; type: in vivo, BALB/c nude mice; settings: 6.3 mg/kg p.o. QD
[6] = tested on: protein and lipid kinases (KINOMEScan panel); assay: KINOMEScan panel selectivity; type: binding; settings: 10 μM
PI3Kα = PI3Kα (Homo sapiens, UniProt P42336); assay: DiscoverX KdELECT; settings: Inhibitor binding constant Kd PI3Kα, first PI3K column of Table S2
Chain of PI3Kα (P42336 whole entry): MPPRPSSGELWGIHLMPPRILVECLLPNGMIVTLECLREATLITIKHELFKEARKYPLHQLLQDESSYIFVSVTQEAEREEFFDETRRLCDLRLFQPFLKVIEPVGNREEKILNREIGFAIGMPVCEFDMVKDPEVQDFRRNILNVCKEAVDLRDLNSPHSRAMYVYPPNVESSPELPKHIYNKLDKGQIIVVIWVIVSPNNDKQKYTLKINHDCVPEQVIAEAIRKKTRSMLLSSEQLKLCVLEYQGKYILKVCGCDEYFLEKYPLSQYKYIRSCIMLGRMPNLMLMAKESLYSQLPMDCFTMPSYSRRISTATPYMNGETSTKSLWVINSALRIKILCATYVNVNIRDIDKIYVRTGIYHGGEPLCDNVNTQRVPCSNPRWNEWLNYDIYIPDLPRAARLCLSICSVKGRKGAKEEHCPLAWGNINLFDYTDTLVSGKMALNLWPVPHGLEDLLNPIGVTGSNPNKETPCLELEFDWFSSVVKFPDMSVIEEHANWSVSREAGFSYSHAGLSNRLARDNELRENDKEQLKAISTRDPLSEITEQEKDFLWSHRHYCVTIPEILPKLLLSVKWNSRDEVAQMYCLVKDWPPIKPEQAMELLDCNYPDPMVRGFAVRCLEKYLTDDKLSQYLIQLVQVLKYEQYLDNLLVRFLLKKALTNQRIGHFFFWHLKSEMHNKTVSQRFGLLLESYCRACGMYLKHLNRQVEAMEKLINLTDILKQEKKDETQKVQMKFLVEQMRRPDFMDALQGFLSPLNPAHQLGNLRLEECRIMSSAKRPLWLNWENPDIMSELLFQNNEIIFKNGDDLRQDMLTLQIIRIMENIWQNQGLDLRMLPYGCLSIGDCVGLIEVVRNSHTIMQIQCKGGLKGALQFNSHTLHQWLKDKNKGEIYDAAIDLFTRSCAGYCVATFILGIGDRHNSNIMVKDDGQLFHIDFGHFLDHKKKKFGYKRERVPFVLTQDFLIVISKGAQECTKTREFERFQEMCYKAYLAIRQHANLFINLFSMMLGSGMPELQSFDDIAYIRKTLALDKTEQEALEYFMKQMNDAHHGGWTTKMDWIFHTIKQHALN

[7] = tested on: CEREP BioPrint (P22-p) panel; assay: CEREP BioPrint; type: binding; settings: 10 μM
[8] = Liver microsome stability; type: in vitro ADME; settings: human, liver microsomes, pH 7.4
44 tumor cell lines [9] = assay: NTRC Oncolines proliferation, panel mean; type: cell-based; settings: 4-4 cell

Row | Structure (SMILES) | GI50 (44 tumor cell lines [1]) | mean tumor size (OVCAR-3 xenograft [2]) | remaining at 0.5 h, 1 µM [3] | Kd (PI3Kβ) | remaining at 0.5 h, 1 µM [4] | Kd (PI3Kδ) | GI50 (66 cancer cell lines) | Kd (PI3Kγ) | Cl (Pharmacokinetics in mice) | body weight / tolerability (OVCAR-3 xenograft [5]) | tumor weight analysis vs vehicle (OVCAR-3 xenograft [5]; day 45) | interference with protein kinase activities [6] | Kd (PI3Kα) | off-target interactions [7] | remaining at 0.5 h, 1 µM [8] | GI50 (44 tumor cell lines [9])
1 | Nc1cc(C(F)(F)F)c(-c2nc(N3CCOCC3)nc(N3CCOCC3)n2)cn1 [PQR309 (1), 5-(4,6-Dimorpholino-1,3,5-triazin-2-yl)-4-(trifluoromethyl)pyridin-2-amine] | ~1000 nM | 571 mm^3 |  |  |  |  |  |  |  |  |  |  |  |  |  | 
2 | Nc1ncc(-c2nc(N3CCOCC3)nc(N3CCOCC3)n2)c(C(F)F)n1 [PQR514 (4)] |  |  | 109 ± 10.7% | < 7 nM | 92.7 ± 0.2% | < 7 nM | 250 nM | < 7 nM | 934 mL/h/kg | no significant body weight loss was observed | significantly inhibited tumor growth | negligible interference with protein kinase activities | < 7 nM | With the exception of human PDE3A (phosphodiesterase 3A), no or very weak interactions were detected | 87.2 ± 3.5% | 240 nM
3 | C[C@H]1COCCN1c1nc(-c2cnc(N)cc2C(F)F)nc(N2CCOCC2)n1 [PQR530 (16), (S)-4-(Difluoromethyl)-5-(4-(3-methylmorpholino)-6-morpholino-1,3,5-triazin-2-yl)p yridin-2-amine] | ~400 nM |  |  |  |  |  |  |  |  |  |  |  |  |  |  | 
